“And” between values parts separate entries of the source, which are not always exact repeats. Equal entries are not always repeated. Where two headings read alike, the source gives them in different places.
Columns and labels:
Bacillus subtilis spores [1] = test: spore suspension test, killing of Bacillus subtilis spores; type: cell-based; details: for Log Reduction/mL, 8 hr: 8 hr exposure; for Log Reduction/mL (3 hr, 20° C., pH = 8): 3 hr exposure; for Log Reduction/mL, 24 hr: 24 hr exposure; for Log Reduction/mL, 4 hr: 4 hr exposure
[2] = storage stability of phthalaldehyde solution (loss by Cannizzaro reaction); type: physicochemical; details: about 11 weeks
Description: Overall, the Cannizzaro reaction generally leads to loss of phthalaldehyde and a decrease in the germicidal efficacy of the solution. While a pH of from 6 to 10, or 7.5 to 9 generally enhances the efficacy of the phthalaldehyde-carbonate solution, the higher or alkaline pH also generally promotes the Cannizzaro reaction. […] However, about 14% of the phthalaldehyde may be lost if the same solution is stored for about 11 weeks at a pH of 9, at room temperature. Even more of the phthalaldehyde may be converted if the storage period is longer, if the temperature is higher, or if the pH is higher than 9.

[3] = cited from earlier work
Bacillus subtilis spores [4] = details: cited from earlier work
[5] = test system: Clostridium sporogenes spores; details: cited from earlier work
Mycobacterium bovis BCG = details: at least 0.25% by weight phthalaldehyde as sole active ingredient, 20° C.; cited from earlier work
[6] = pH range of 3 to 9; cited from earlier work
Bacillus subtilis spores [7] = details: cited from earlier work; remark: listed apart in the source
spores = details: 0.3% (w/v) NaHCO3 added; cited from earlier work
[8] = 0.25% phthalaldehyde as sole active ingredient, 20° C.
[9] = 20° C., composition and pH per label

O=Cc1ccccc1C=O [0.3% OPA, phthalaldehyde]
Log Reduction/mL, 2 hr (Bacillus subtilis spores [1]; 20° C., 2 hr exposure, composition and pH per label): 0.4 log/mL
Log Reduction/mL, 6 hr (Bacillus subtilis spores [1]; 20° C., 6 hr exposure): 0.7 log/mL
Log Reduction/mL, 8 hr (Bacillus subtilis spores [1]; 20° C.): ~0.6 log/mL
Log Reduction/mL (3 hr, 20° C., pH = 8) (Bacillus subtilis spores [1]): 0.10 log/mL
Log Reduction/mL (20° C., 4 hrs), [NaHCO3], 63 mM (Bacillus subtilis spores [1]; 4 hrs, labelled solution additionally contains 63 mM NaHCO3): 1.5 log/mL and 1.4 log/mL
Log Reduction/mL (20° C., 4 hrs), [Phosphate], 63 mM (Bacillus subtilis spores [1]; 4 hrs, labelled solution additionally contains 63 mM phosphate): 0.7 log/mL
Log Reduction/mL (20° C., 4 hrs), [NaF], 400 mM (Bacillus subtilis spores [1]; 4 hrs, labelled solution additionally contains 400 mM NaF): 4.7 log/mL
Log Reduction/mL (20° C., 4 hrs), [NaF], 0 mM (Bacillus subtilis spores [1]; 4 hrs, no NaF added to the labelled solution): 0.4 log/mL
Log Reduction/mL (20° C., 4 hrs), [NaHCO3], 0 mM (Bacillus subtilis spores [1]; 4 hrs, no NaHCO3): 0.5 log/mL
Log Reduction/mL (20° C., 4 hrs), [Phosphate], 0 mM (Bacillus subtilis spores [1]; 4 hrs, no phosphate): 0.4 log/mL
loss of phthalaldehyde on storage ([2]; pH 7 or lower, room temperature to about 40° C.): without a noticeable loss
phthalaldehyde lost on storage ([2]; pH 9, room temperature): about 14%
solubility in water [3]: about 5 % by weight
time for sporicidal activity (Bacillus subtilis spores [4]; [8]): 24 h
time to achieve sterilization (Bacillus subtilis spores [4]; 1.0% phthalaldehyde): 10 h
time for sporicidal activity [5, 8]: 24 h
time to achieve sterilization ([5]; 1.0% phthalaldehyde): 10 h
time to kill all Mycobacterium bovis BCG in contact (high-level disinfection) (Mycobacterium bovis BCG): ≤ 10 min
storage stability of single-component compositions [6]: excellent stability

O=CCCCC=O [2.4% Glutaraldehyde, glutaraldehyde]
Log Reduction/mL (3 hr, 20° C., pH = 8) (Bacillus subtilis spores [1]): <1.1 log/mL
effect of salt concentration on sporicidal activity (Bacillus subtilis spores [7]; salt ranging from 0 to 1M): increasing with an increase in concentration of sodium bicarbonate or sodium chloride

[F-].[Li+] [100 mM LiF, lithium fluoride]
Log Reduction/mL, 24 hr (Bacillus subtilis spores [1]; 20° C.): 0.0 log/mL

[F-].[K+] [1000 mM KF, potassium fluoride]
Log Reduction/mL, 8 hr (Bacillus subtilis spores [1]; 20° C.): 0.0 log/mL
Log Reduction/mL, 24 hr (Bacillus subtilis spores [1]; 20° C.): 0.1 log/mL
Log Reduction/mL (3 hr, 20° C., pH = 8) (Bacillus subtilis spores [1]): 0.0 log/mL

[I-].[K+] [1000 mM KI, potassium iodide]
Log Reduction/mL (3 hr, 20° C., pH = 8) (Bacillus subtilis spores [1]): 0.0 log/mL

[Br-].[Na+] [1000 mM NaBr, sodium bromide]
Log Reduction/mL, 4 hr (Bacillus subtilis spores [1]; [9]): 0.0 log/mL
Log Reduction/mL, 24 hr (Bacillus subtilis spores [1]; 20° C.): 0.1 log/mL

[Cl-].[Na+] [1000 mM NaCl, sodium chloride]
Log Reduction/mL, 24 hr (Bacillus subtilis spores [1]; 20° C.): 0.2 log/mL

[F-].[Na+] [1000 mM NaF, sodium fluoride]
Log Reduction/mL, 8 hr (Bacillus subtilis spores [1]; 20° C.): 0.0 log/mL

[I-].[Na+] [1000 mM NaI, sodium iodide]
Log Reduction/mL, 4 hr (Bacillus subtilis spores [1]; [9]): 0.0 log/mL
Log Reduction/mL, 8 hr (Bacillus subtilis spores [1]; 20° C.): 0.0 log/mL
Log Reduction/mL, 24 hr (Bacillus subtilis spores [1]; 20° C.): 0.1 log/mL

CCCC=O [butyraldehyde]
effect of addition of NaHCO3 on sporicidal action (spores): did not affect

O=CC=O [glyoxal]
effect of addition of NaHCO3 on sporicidal action (spores): did not affect

OO [hydrogen peroxide]
effect of salt concentration on sporicidal activity (Bacillus subtilis spores [7]; salt ranging from 0 to 1M): not affected

CC(=O)OO [peracetic acid]
effect of salt concentration on sporicidal activity (Bacillus subtilis spores [7]; salt ranging from 0 to 1M): not affected

Oc1ccccc1 [phenol]
effect of salt concentration on sporicidal activity (Bacillus subtilis spores [7]): not affected

OCl [sodium hypochlorite]
effect of salt concentration on sporicidal activity (Bacillus subtilis spores [7]; salt ranging from 0 to 1M): not affected

cupric ascorbate
effect of salt concentration on sporicidal activity (Bacillus subtilis spores [7]; salt ranging from 0 to 1M): not affected

Reference: patent publication US20050136118A1, “Distribution and preparation of germicidal compositions” (priority 2003, published 2005)
